In patent publication US10233182B2, “Substituted spirocyclic inhibitors of autotaxin” (X-Rx, Inc., priority 2014, dated 2019):
pIC50: −log10 of the molar value.

The compounds below were run against Autotaxin (Homo sapiens (Human), UniProt Q13822) (assay: Autotaxin LPC Cascade Assay). Details: Autotaxin 5 nM, LPC 100 μM, choline oxidase/HRP/Ampliflu Red fluorescence read-out, 2% DMSO, RT; read-out: IC50 ATX Activity.
Assay type: biochemical
How it was run: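 Choline liberated from LPC by autotaxin during 1 h, after a 10-min RT compound preincubation, was converted through choline oxidase/HRP to a fluorescent Ampliflu Red product.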
CCc1cc(F)cc(C(=O)N[C@@H](C(=O)N2CCC3(CC2)C(=O)N(C)CN3c2ccccc2)[C@H](C)OC)c1 [Example 136, 3-Ethyl-5-fluoro-N-((2R,3S)-3-methoxy-1-(3-methyl-4-oxo-1-phenyl-1,3,8-triazaspiro[4.5]decan-8-yl)-1-oxobutan-2-yl)benzamide] showed a pIC50 of over 6.30. In the case of Cc1cc(C(=O)N[C@@H](C(=O)N2CCC3(CC2)C(=O)N(C)CN3c2ccccc2)C(C)C)ccn1 [Example 137, (R)-2-Methyl-N-(3-methyl-1-(3-methyl-4-oxo-1-phenyl-1,3,8-triazaspiro[4.5]decan-8-yl)-1-oxobutan-2-yl)isonicotinamide], the pIC50 was at most 6.00. Work on CCc1cccc(C(=O)N[C@@H](C(=O)N2CCC3(CC2)C(=O)N(C)CN3c2ccccc2)C(C)C)c1 [Example 138, (R)-3-Ethyl-N-(3-methyl-1-(3-methyl-4-oxo-1-phenyl-1,3,8-triazaspiro[4.5]decan-8-yl)-1-oxobutan-2-yl)benzamide] yielded a pIC50 of over 6.30. Cc1cc(C(=O)N[C@@H](C(=O)N2CCC3(CC2)C(=O)N(C)CN3c2ccccc2)C(C)C)ccc1F [Example 139, (R)-4-Fluoro-3-methyl-N-(3-methyl-1-(3-methyl-4-oxo-1-phenyl-1,3,8-triazaspiro[4.5]decan-8-yl)-1-oxobutan-2-yl)benzamide] was tested, and the pIC50 was over 6.30. For Cc1cc(F)cc(C(=O)N[C@@H](C(=O)N2CCC3(CC2)C(=O)N(C)CN3c2ccccc2)C(C)C)c1 [Example 140, (R)-3-Fluoro-5-methyl-N-(3-methyl-1-(3-methyl-4-oxo-1-phenyl-1,3,8-triazaspiro[4.5]decan-8-yl)-1-oxobutan-2-yl)benzamide], the pIC50 was over 6.30. Cc1ccc(F)c(C(=O)N[C@@H](C(=O)N2CCC3(CC2)C(=O)N(C)CN3c2ccccc2)C(C)C)c1 [Example 141, (R)-2-Fluoro-5-methyl-N-(3-methyl-1-(3-methyl-4-oxo-1-phenyl-1,3,8-triazaspiro[4.5]decan-8-yl)-1-oxobutan-2-yl)benzamide] was tested, and the pIC50 was over 6.30. Work on CC(C)[C@@H](NC(=O)c1cccc(C2CC2)c1)C(=O)N1CCC2(CC1)C(=O)N(C)CN2c1ccccc1 [Example 142, (R)-3-Cyclopropyl-N-(3-methyl-1-(3-methyl-4-oxo-1-phenyl-1,3,8-triazaspiro[4.5]decan-8-yl)-1-oxobutan-2-yl)benzamide] yielded a pIC50 of over 6.30. Compound CCc1ccc(F)c(C(=O)N[C@@H](C(=O)N2CCC3(CC2)C(=O)N(C)CN3c2ccccc2)C(C)C)c1 [Example 144, (R)-5-Ethyl-2-fluoro-N-(3-methyl-1-(3-methyl-4-oxo-1-phenyl-1,3,8-triazaspiro[4.5]decan-8-yl)-1-oxobutan-2-yl)benzamide] has a pIC50 of over 6.30. Compound Cc1cccc(C(=O)N[C@@H](C(=O)N2CCC3(CC2)C(=O)N(C)CN3c2ccc(C(N)=O)cc2)C(C)C)c1F [Example 145, (R)—N-(1-(1-(4-Carbamoylphenyl)-3-methyl-4-oxo-1,3,8-triazaspiro[4.5]decan-8-yl)-3-methyl-1-oxobutan-2-yl)-2-fluoro-3-methylbenzamide] has a pIC50 of 6.00 to 6.30. Cc1cccc(C(=O)N[C@@H](C(=O)N2CCC3(CC2)C(=O)N(C)CN3c2cccc(C(N)=O)c2)C(C)C)c1F [Example 146, (R)—N-(1-(1-(3-Carbamoylphenyl)-3-methyl-4-oxo-1,3,8-triazaspiro[4.5]decan-8-yl)-3-methyl-1-oxobutan-2-yl)-2-fluoro-3-methylbenzamide] was tested, and the pIC50 was at most 6.00. For Cc1cccc(C(=O)N[C@@H](C(=O)N2CCC3(CC2)C(=O)N(C)CN3c2ccc(B(O)O)cc2)C(C)C)c1F [Example 147, (R)-4-(8-(2-(2-Fluoro-3-methylbenzamido)-3-methylbutanoyl)-3-methyl-4-oxo-1,3,8-triazaspiro[4.5]decan-1-yl)phenylboronic Acid], the pIC50 was over 6.30. Work on Cc1cccc(C(=O)N[C@@H](C(=O)N2CCC3(CC2)C(=O)N(C)CN3c2cccc(B(O)O)c2)C(C)C)c1F [Example 148, (R)-3-(8-(2-(2-Fluoro-3-methylbenzamido)-3-methylbutanoyl)-3-methyl-4-oxo-1,3,8-triazaspiro[4.5]decan-1-yl)phenylboronic Acid] yielded a pIC50 of at most 6.00.
